{"source": "patent US8911750B2", "about": "“Lung volume reduction therapy using crosslinked biopolymers” (priority 2007, dated 2014)", "test_system": "tissue", "assay": "Local tissue toxicity of glutaraldehyde by concentration", "format": "in vivo", "conditions": "below this level limited local toxicity", "data": [{"smiles": "O=CCCCC=O", "note": "[glutaraldehyde]", "values": [{"measurement": "concentration that produces significant tissue necrosis", "value": "≥ 0.75", "unit": "%"}]}]}
